In paper PMC7727793, “Aggregation Behavior, Antibacterial Activity and Biocompatibility of Catanionic Assemblies Based on Amino Acid-Derived Surfactants” (International Journal of Molecular Sciences, 2020):
Entries after “also recorded” stand apart in the source; their conditions may differ.

Tests used:
[1] = Solubility in water; assay type: physicochemical
[2] = test system: all microorganisms tested; experiment: Broth microdilution MIC, statement for all microorganisms tested; assay type: cell-based
Protocol: Antibacterial assays were conducted in vitro using the broth microdilution method. The minimum inhibitory concentration (MIC) is the smallest concentration of antibacterial agent at which bacterial growth is not observed. MIC values were determined for 4 Gram-positive bacteria (methicillin-resistant Staphylococcus aureus ATCC 43300 (MRSA), Bacillus subtilis ATCC 6633, Kocuria rhizophila 9341, Staphylococcus epidermidis ATCC 12228), 3 Gram-negative bacteria (Klebsiella pneumoniae ATCC 4532, Pseudomonas aeruginosa ATCC 27853, Escherichia coli ATCC 8739) and the fungal strain, Candida albicans ATCC 10231. Frozen stocks of bacteria were incubated on Muller Hinton agar plates for 24 h at 37 °C. From this culture, a bacterial suspension of 1 × 10^6 colony forming units CFU/mL was prepared in MHB (pH = 7.3). Two dilutions of pure surfactants and their binary mixtures were prepared in MH broth to obtain a final concentration ranging from 4 to 454 μM in the microtiter plates.
Then, 10 μL of nutrient broth culture of each microorganism was added to achieve a final density of ca. 5 × 10^5 CFU/mL. The cultures were incubated for 24 h at 37 °C. Every assay was repeated three times.

MIC ([2]; K. rhizophila, B. subtilis, S. epidermidis, S. aureus, K. pneumoniae, E. coli, P. aeruginosa, C. albicans, higher concentrations precipitated, read-out: MIC for all microorganisms tested): > 113 µM
SMILES: CCCCCCCCCCCC(=O)N[C@@H](CCCCNC(C)=O)C(=O)O [C12C3L, N^α-lauroyl-N^εacetyl lysine]
Solubility in water [1]: too low to determine a CMC; also recorded: not soluble in water
Antibacterial activity (in words) ([2]; tested microorganisms): did not show activity
